Measured values published in ChEMBL document CHEMBL3769314, “4(5)-Aryl-2-C-glucopyranosyl-imidazoles as New Nanomolar Glucose Analogue Inhibitors of Glycogen Phosphorylase” (ACS Med Chem Lett, 2015).
Active and inactive are the calls of the source. No cut-off for these calls is given here.

Legend:
[1] = molecular target: T1, Glycogen phosphorylase, muscle form (Oryctolagus cuniculus) (UniProt P00489); assay: Inhibition of rabbit muscle glycogen phosphorylase-b using alpha-D-glucose-1-phosphate as substrate at 625 uM by Dixon plot analysis
T1 sequence (whole entry): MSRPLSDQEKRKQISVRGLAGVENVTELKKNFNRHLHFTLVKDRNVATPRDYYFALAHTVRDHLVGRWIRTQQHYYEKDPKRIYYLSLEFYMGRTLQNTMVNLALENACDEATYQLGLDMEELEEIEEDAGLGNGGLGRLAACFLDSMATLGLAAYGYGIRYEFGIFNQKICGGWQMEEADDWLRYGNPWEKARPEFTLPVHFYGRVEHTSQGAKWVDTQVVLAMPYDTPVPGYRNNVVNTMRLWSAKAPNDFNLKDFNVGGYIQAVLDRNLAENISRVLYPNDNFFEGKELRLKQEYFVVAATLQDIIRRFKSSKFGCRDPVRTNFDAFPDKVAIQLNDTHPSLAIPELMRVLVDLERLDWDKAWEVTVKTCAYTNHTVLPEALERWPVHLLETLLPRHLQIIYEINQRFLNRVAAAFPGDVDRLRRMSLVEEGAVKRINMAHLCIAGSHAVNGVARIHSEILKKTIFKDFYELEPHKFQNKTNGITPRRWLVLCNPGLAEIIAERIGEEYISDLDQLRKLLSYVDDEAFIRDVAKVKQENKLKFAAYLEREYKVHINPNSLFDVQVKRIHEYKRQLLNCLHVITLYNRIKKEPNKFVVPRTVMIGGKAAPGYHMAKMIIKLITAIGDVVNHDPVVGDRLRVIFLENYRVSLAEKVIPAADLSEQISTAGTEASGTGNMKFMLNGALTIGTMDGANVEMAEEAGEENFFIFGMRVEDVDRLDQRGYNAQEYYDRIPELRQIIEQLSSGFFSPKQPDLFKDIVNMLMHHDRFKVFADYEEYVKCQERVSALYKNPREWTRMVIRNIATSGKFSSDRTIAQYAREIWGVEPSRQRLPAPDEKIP

[2] = molecular target: T2, Glycogen phosphorylase, muscle form (Oryctolagus cuniculus, UniProt P00489); assay: Competitive inhibition of rabbit muscle glycogen phosphorylase-b using alpha-D-glucose-1-phosphate as substrate by Dixon plot analysis
T2 sequence (P00489 whole entry): T1 sequence (whole entry)

[3] = molecular target: T2, Glycogen phosphorylase, muscle form

Row | SMILES | Ki [2] [µM] | also measured
1 | OC[C@H]1O[C@@H](c2cc(-c3ccccc3)on2)[C@H](O)[C@@H](O)[C@@H]1O | – | inhibition [1]: inactive
2 | OC[C@H]1O[C@@H](c2nc(-c3ccc4ccccc4c3)c[nH]2)[C@H](O)[C@@H](O)[C@@H]1O | 0.031 | –
3 | OC[C@H]1O[C@@H](c2nc(-c3ccccc3)cs2)[C@H](O)[C@@H](O)[C@@H]1O | 310 | –
4 | OC[C@H]1O[C@@H](c2nc(-c3ccccc3)c[nH]2)[C@H](O)[C@@H](O)[C@@H]1O | 0.28 | –
5 | OC[C@H]1O[C@@H](c2nc3ccccc3s2)[C@H](O)[C@@H](O)[C@@H]1O | – | Ki [3]: 229 µM
6 | OC[C@H]1O[C@@H](c2cc(-c3ccccc3)n[nH]2)[C@H](O)[C@@H](O)[C@@H]1O | – | Ki [3]: 400 µM
7 | OC[C@H]1O[C@@H](c2nc(-c3ccc4ccccc4c3)cs2)[C@H](O)[C@@H](O)[C@@H]1O | 158 | –
